Assay results as given in patent US20240343740A1, “MACROCYCLIC GLUCAGON-LIKE PEPTIDE 1 RECEPTOR AGONISTS” (Eli Lilly and Company, priority 2021, published 2024).

Columns and labels:
[1] = target: T1, human GLP-1R (Homo sapiens, UniProt P43220); assay: Human GLP-1 Receptor HEK293 cell cAMP assay, 581 fmol/mg GLP-1R expression density; format: cell-based; parameters: expressed in transfected cells; host or cells: HEK293 clonal cell line; conditions: HEK293 cell line with 581 fmol/mg expression density of GLP-1R; for EC50: geometric mean, read-out: EC50 nM (SEM, n), intracellular cAMP response, relative EC50; for Emax: percent of maximal response to GLP-1(7-36)NH2, arithmetic mean, read-out: Emax % (SEM, n), intracellular cAMP response
T1 sequence (P43220 24-463): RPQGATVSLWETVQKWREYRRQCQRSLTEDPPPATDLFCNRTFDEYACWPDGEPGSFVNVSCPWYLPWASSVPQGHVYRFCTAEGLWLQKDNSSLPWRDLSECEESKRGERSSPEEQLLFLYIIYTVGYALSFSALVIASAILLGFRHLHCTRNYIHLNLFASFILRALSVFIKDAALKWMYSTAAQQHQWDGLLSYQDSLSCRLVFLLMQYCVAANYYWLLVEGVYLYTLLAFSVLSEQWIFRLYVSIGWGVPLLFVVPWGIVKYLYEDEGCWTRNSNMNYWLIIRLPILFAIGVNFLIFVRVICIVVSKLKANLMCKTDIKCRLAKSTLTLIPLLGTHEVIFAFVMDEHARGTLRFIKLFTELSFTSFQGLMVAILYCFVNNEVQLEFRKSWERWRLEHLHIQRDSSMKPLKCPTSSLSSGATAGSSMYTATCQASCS
Experimental: (§1) Human GLP-1 Receptor HEK293 Cell cAMP Assay
(§2) GLP-1 Receptor functional activity is determined using cAMP formation in an HEK293 clonal cell line expressing human GLP-1R (NCBI accession number NP_002053) at an expression density of 581±94 (n=6) and 104±12 (n=5) fmol/mg protein (determined using [^125I]GLP-1(7-36)NH2 homologous competition binding analysis). The hGLP-1R receptor expressing cells are treated with compound (20 point concentration-response curve in DMSO, 2.75-fold Labcyte Echo direct dilution, 384 well plate Corning Cat #3570) in DMEM (Gibco Cat #31053) supplemented with 1× GlutaMAX™ (Gibco Cat #35050), 0.1% bovine casein (Sigma C4765-10ML), 250 μM IBMX (3-Isobutyl-1-methylxanthine, Acros Cat #228420010) and 20 mM HEPES (Gibco Cat #15630) in a 20 μL assay volume (final DMSO concentration is 0.5%). After a 30 min incubation at 37° C., the resulting increase in intracellular cAMP is quantitatively determined using the CisBio cAMP Dynamic 2 HTRF Assay Kit (62AM4PEJ). Briefly, cAMP levels within the cell are detected by adding the cAMP-d2 conjugate in cell lysis buffer (10 μL) followed by the antibody anti-cAMP-Eu^3+-Cryptate, also in cell lysis buffer (10 μL). The resulting competitive assay is incubated for at least 60 min at RT, then detected using a PerkinElmer Envision® instrument with excitation at 320 nm and emission at 665 nm and 620 nm. Envision units (emission at 665 nm/620 nm*10,000) are inversely proportional to the amount of cAMP present and are converted to nM cAMP per well using a cAMP standard curve. The amount of cAMP generated (nM) in each well is converted to a percent of the maximal response observed with human GLP-1(7-36)NH2. A relative EC50 value and percent top (Emax) are derived by non-linear regression analysis using the percent maximal response vs. the concentration of compound added, fitted to a four-parameter logistic equation.

[2] = target: T1, human GLP-1R; assay: Human GLP-1 Receptor HEK293 cell cAMP assay, 104 fmol/mg GLP-1R expression density; format: cell-based; parameters: expressed in transfected cells; host or cells: HEK293 clonal cell line; conditions: HEK293 cell line with 104 fmol/mg expression density of GLP-1R; for EC50: geometric mean, read-out: EC50 nM (SEM, n), intracellular cAMP response, relative EC50; for Emax: percent of maximal response to GLP-1(7-36)NH2, arithmetic mean, read-out: Emax % (SEM, n), intracellular cAMP response
Experimental: as §1, §2

Compound | EC50 [1] | Emax [1] | EC50 [2] | Emax [2]
N#Cc1ccc2c(c1)CCCOc1cc(ccc1Cc1nc3ccc(C(=O)O)cc3n1C[C@@H]1CCO1)-c1cccc(n1)OC2 [Example 4, (S)-2-((5^4-Cyano-3,9-dioxa-2(2,6)-pyridina-1(1,3),5(1,2)-dibenzenacyclononaphane-1^4-yl)methyl)-1-(oxetan-2-ylmethyl)-1H-benzo[d]imidazole-6-carboxylic acid] | 90.6 nM | 99.2% | 384 nM | 78.7%
N#Cc1ccc2c(c1)CCCOc1cc(ccc1Cc1nc3ccc(C(=O)O)nc3n1C[C@@H]1CCO1)-c1cccc(n1)OC2 [Example 6, (S)-2-((5^4-Cyano-3,9-dioxa-2(2,6)-pyridina-1(1,3),5(1,2)-dibenzenacyclononaphane-1^4-yl)methyl)-3-(oxetan-2-ylmethyl)-3H-imidazo[4,5-b]pyridine-5-carboxylic acid] | 166 nM | 97.2% | 1020 nM | 89.1%
N#Cc1ccc2c(c1)CCCOc1cc(c(F)cc1Cc1nc3ccc(C(=O)O)cc3n1C[C@@H]1CCO1)-c1cccc(n1)NC2 [Example 8, (S)-2-((5^4-Cyano-1^6-fluoro-9-oxa-3-aza-2(2,6)-pyridina-1(1,3),5(1,2)-dibenzenacyclononaphane-1^4-yl)methyl)-1-(oxetan-2-ylmethyl)-1H-benzo[d]imidazole-6-carboxylic acid] | 168 nM | 90.5% | 815 nM | 81.5%
N#Cc1ccc2cc1CCCOc1cc(c(F)cc1Cc1nc3ccc(C(=O)O)cc3n1C[C@@H]1CCO1)-c1cccc(n1)OC2 [Example 10, (S)-2-((5^4-Cyano-1^6-fluoro-3,9-dioxa-2(2,6)-pyridina-1,5(1,3)-dibenzenacyclononaphane-1^4-yl)methyl)-1-(oxetan-2-ylmethyl)-1H-benzo[d]imidazole-6-carboxylic acid] | 35.3 nM | 107% | 147 nM | 88.9%
N#Cc1ccc2c(c1)OCCOc1cc(c(F)cc1Cc1nc3ccc(C(=O)O)cc3n1C[C@@H]1CCO1)-c1cccc(n1)OC2 [Example 13, (S)-2-((5^4-Cyano-1^6-fluoro-3,6,9-trioxa-2(2,6)-pyridina-1(1,3),5(1,2)-dibenzenacyclononaphane-1^4-yl)methyl)-1-(oxetan-2-ylmethyl)-1H-benzo[d]imidazole-6-carboxylic acid] | 120 nM | 88.5% | 542 nM | 74.7%
N#Cc1ccc2c(c1)COCc1cc(c(F)cc1Cc1nc3ccc(C(=O)O)cc3n1C[C@@H]1CCO1)-c1cccc(n1)OC2 [Example 14, (S)-2-((5^4-Cyano-1^6-fluoro-3,7-dioxa-2(2,6)-pyridina-1(1,3),5(1,2)-dibenzenacyclooctaphane-1^4-yl)methyl)-1-(oxetan-2-ylmethyl)-1H-benzo[d]imidazole-6-carboxylic acid] | 72.3 nM | 109% | 228 nM | 82.5%
O=C(O)c1ccc2nc(Cc3ccc4cc3OCCCc3cc(Br)ccc3COc3cccc-4n3)n(C[C@@H]3CCO3)c2c1 [Example 18, (S)-2-((5^4-Bromo-3,9-dioxa-2(2,6)-pyridina-1(1,3),5(1,2)-dibenzenacyclononaphane-1^4-yl)methyl)-1-(oxetan-2-ylmethyl)-1H-benzo[d]imidazole-6-carboxylic acid] | 50.3 nM | 115% | 169 nM | 94.9%
N#Cc1ccc2c(c1)CCOCc1cc(ccc1Cc1nc3ccc(C(=O)O)cc3n1C[C@@H]1CCO1)-c1cccc(n1)OC2 [Example 19, (S)-2-((5^4-Cyano-3,8-dioxa-2(2,6)-pyridina-1(1,3),5(1,2)-dibenzenacyclononaphane-1^4-yl)methyl)-1-(oxetan-2-ylmethyl)-1H-benzo[d]imidazole-6-carboxylic acid] | 55.4 nM | 103% | 197 nM | 83%

More lines, now with the values ahead:

EC50 [1] | Emax [1] | EC50 [2] | Emax [2] | Compound
6.58 nM | 109% | 22.3 nM | 81.6% | COc1cc(C(=O)O)cc2c1nc(Cc1ccc3cc1OCCCc1cc(C#N)ccc1COc1cccc-3n1)n2C[C@@H]1CCO1 [Example 5, (S)-2-((5^4-Cyano-3,9-dioxa-2(2,6)-pyridina-1(1,3),5(1,2)-dibenzenacyclononaphane-1^4-yl)methyl)-4-methoxy-1-(oxetan-2-ylmethyl)-1H-benzo[d]imidazole-6-carboxylic acid]
20.1 nM | 104% | 96.8 nM | 92.9% | N#Cc1ccc2c(c1)CCCOc1cc(ccc1Cc1nc3c(F)cc(C(=O)O)cc3n1C[C@@H]1CCO1)-c1cccc(n1)OC2 [Example 7, (S)-2-((5^4-cyano-3,9-dioxa-2(2,6)-pyridina-1(1,3),5(1,2)-dibenzenacyclononaphane-1^4-yl)methyl)-4-fluoro-1-(oxetan-2-ylmethyl)-1H-benzo[d]imidazole-6-carboxylic acid]
1.8 nM | 118% | 5.44 nM | 83.1% | COc1cc(C(=O)O)cc2c1nc(Cc1cc(C)c3cc1OCCCc1cc(C#N)ccc1COc1cccc-3n1)n2C[C@@H]1CCO1 [Example 9, (S)-2-((5^4-Cyano-16-methyl-3,9-dioxa-2(2,6)-pyridina-1(1,3),5(1,2)-dibenzenacyclononaphane-1^4-yl)methyl)-4-methoxy-1-(oxetan-2-ylmethyl)-1H-benzo[d]imidazole-6-carboxylic acid]
35 nM | 92% | 194 nM | 81% | CCn1cncc1Cn1c(Cc2ccc3cc2OCCCc2cc(C#N)ccc2COc2cccc-3n2)nc2ccc(C(=O)O)cc21 [Example 11, 2-((5^4-cyano-3,9-dioxa-2(2,6)-pyridina-1(1,3),5(1,2)-dibenzenacyclononaphane-1^4-yl)methyl)-1-((1-ethyl-1H-imidazol-5-yl)methyl)-1H-benzo[d]imidazole-6-carboxylic acid]
6.74 nM | 105% | 26.4 nM | 82.8% | COc1cc(C(=O)O)cc2c1nc(Cc1cc(C)c3cc1OCCCc1cc(C#N)ccc1COc1cccc-3c1)n2C[C@@H]1CCO1 [Example 15, (S)-2-((5^4-Cyano-1^6-methyl-3,9-dioxa-1,2(1,3),5(1,2)-tribenzenacyclononaphane-1^4-yl)methyl)-4-methoxy-1-(oxetan-2-ylmethyl)-1H-benzo[d]imidazole-6-carboxylic acid]
1.95 nM | 125% | 4.02 nM | 86.7% | COc1cc(C(=O)O)cc2c1nc(Cc1cc(C)c3cc1OCCCc1cc(C(F)(F)F)ccc1COc1cccc-3n1)n2C[C@@H]1CCO1 [Example 16, (S)-4-Methoxy-2-((1^6-methyl-5^4-(trifluoromethyl)-3,9-dioxa-2(2,6)-pyridina-1(1,3),5(1,2)-dibenzenacyclononaphane-1^4-yl)methyl)-1-(oxetan-2-ylmethyl)-1H-benzo[d]imidazole-6-carboxylic acid]
10.5 nM | 121% | 38.4 nM | 84.6% | COc1cc(C(=O)O)cc2c1nc(Cc1cc(F)c3cc1COCc1cc(C#N)ccc1COc1cccc-3n1)n2C[C@@H]1CCO1 [Example 17, (S)-2-((5^4-cyano-1^6-fluoro-3,7-dioxa-2(2,6)-pyridina-1(1,3),5(1,2)-dibenzenacyclooctaphane-1^4-yl)methyl)-4-methoxy-1-(oxetan-2-ylmethyl)-1H-benzo[d]imidazole-6-carboxylic acid]
